Where “and” joins values, the source holds several entries; their conditions need not be identical. Equal values may be shown once. Inconclusive results are not listed.
Test system: BDF1 mice, B16 melanoma s.c., survival/tumor T/C
Assay: NCI In Vivo Anticancer Drug Screen. Data for tumor model B16 Melanoma (subcutaneous) in B6D2F1 (BDF1) mice
Description: The antitumor activity of compounds was measured in mice bearing transplantable tumors. Survival or tumor size were measured and the results are expressed as the measurement made in the treated group (T) divided by the measurement made in the vehicle treated control group (C). The tumor model used in this assay is B16 Melanoma (subcutaneous) in B6D2F1 (BDF1) mice

[1] = endpoint: median survival time, dose: 0.5 mg/kg/injection, schedule: Q01DX009 (ip), vehicle: saline, higher = longer survival
[2] = endpoint: median survival time, dose: 1.0 mg/kg/injection, schedule: Q01DX009 (ip), vehicle: saline, higher = longer survival

O=C1c2ccccc2C(=O)c2c(NCCNCCO)ccc(NCCNCCO)c21
T/C (endpoint: median survival time, dose: 0.5 mg/kg/injection, schedule: Q01DX009 (ip), vehicle: saline with Tween-80, higher = longer survival): 106 % of control and 119 % of control
T/C [1]: 111 % of control
T/C (endpoint: median survival time, dose: 1.0 mg/kg/injection, schedule: Q01DX009 (ip), vehicle: saline with Tween-80, higher = longer survival): 93 % of control and 115 % of control
T/C [2]: 104 % of control and 110 % of control
T/C (endpoint: median survival time, dose: 1.0 mg/kg/injection, schedule: Q02DX009 (ip), vehicle: saline, higher = longer survival): 100 % of control
T/C (endpoint: median survival time, dose: 2.0 mg/kg/injection, schedule: Q01DX009 (ip), vehicle: saline with Tween-80, higher = longer survival): 101 % of control and 108 % of control
T/C (endpoint: median survival time, dose: 2.0 mg/kg/injection, schedule: Q01DX009 (ip), vehicle: saline, higher = longer survival): 100 % of control and 104 % of control and 107 % of control
T/C (endpoint: median survival time, dose: 4.0 mg/kg/injection, schedule: Q01DX009 (ip), vehicle: saline, higher = longer survival): 92 % of control
T/C (endpoint: median survival time, dose: 4.0 mg/kg/injection, schedule: Q02DX009 (ip), vehicle: Klucel (hydroxypropylcellulose) (HPC), higher = longer survival): 94 % of control
T/C (endpoint: median survival time, dose: 4.0 mg/kg/injection, schedule: Q02DX009 (ip), vehicle: saline, higher = longer survival): 154 % of control
T/C (endpoint: median survival time, dose: 8.0 mg/kg/injection, schedule: Q01DX009 (ip), vehicle: Klucel (hydroxypropylcellulose) (HPC), higher = longer survival): 104 % of control
T/C (endpoint: median survival time, dose: 8.0 mg/kg/injection, schedule: Q01DX009 (ip), vehicle: saline, higher = longer survival): 107 % of control
T/C (endpoint: median survival time, dose: 8.0 mg/kg/injection, schedule: Q02DX009 (ip), vehicle: Klucel (hydroxypropylcellulose) (HPC), higher = longer survival): 117 % of control
T/C (endpoint: median survival time, dose: 8.0 mg/kg/injection, schedule: Q02DX009 (ip), vehicle: saline, higher = longer survival): 110 % of control
T/C (endpoint: median survival time, dose: 8.0 mg/kg/injection, schedule: Q02DX009 (ip), vehicle: water, higher = longer survival): 107 % of control
T/C (endpoint: median survival time, dose: 13.0 mg/kg/injection, schedule: Q01DX009 (ip), vehicle: Klucel (hydroxypropylcellulose) (HPC), higher = longer survival): 104 % of control
T/C (endpoint: median survival time, dose: 16.0 mg/kg/injection, schedule: Q01DX009 (ip), vehicle: Klucel (hydroxypropylcellulose) (HPC), higher = longer survival): 152 % of control
T/C (endpoint: median survival time, dose: 16.0 mg/kg/injection, schedule: Q01DX009 (ip), vehicle: saline, higher = longer survival): 117 % of control
T/C (endpoint: median survival time, dose: 16.0 mg/kg/injection, schedule: Q02DX009 (ip), vehicle: Klucel (hydroxypropylcellulose) (HPC), higher = longer survival): 113 % of control
T/C (endpoint: median survival time, dose: 16.0 mg/kg/injection, schedule: Q02DX009 (ip), vehicle: water, higher = longer survival): 95 % of control and 106 % of control
T/C (endpoint: median survival time, dose: 43.0 mg/kg/injection, schedule: Q04DX003 (ip), vehicle: Klucel (hydroxypropylcellulose) (HPC), higher = longer survival): 97 % of control
T/C (endpoint: median survival time, dose: 74.0 mg/kg/injection, schedule: Q01DX001 (ip), vehicle: Klucel (hydroxypropylcellulose) (HPC), higher = longer survival): 91 % of control
T/C (endpoint: median tumor weight (est.), dose: 13.0 mg/kg/injection, schedule: Q01DX009 (ip), vehicle: Klucel (hydroxypropylcellulose) (HPC), higher = larger tumour): 64 % of control
T/C (endpoint: median tumor weight (est.), dose: 43.0 mg/kg/injection, schedule: Q04DX003 (ip), vehicle: Klucel (hydroxypropylcellulose) (HPC), higher = larger tumour): 52 % of control

N=c1ccn2c(n1)OC1C(O)C(CO)OC12 (centres undefined)
T/C (endpoint: median survival time, dose: 37.5 mg/kg/injection, schedule: Q01DX009 (ip), vehicle: saline, higher = longer survival): 95 % of control
T/C (endpoint: median survival time, dose: 75.0 mg/kg/injection, schedule: Q01DX009 (ip), vehicle: saline, higher = longer survival): 100 % of control
T/C (endpoint: median survival time, dose: 150.0 mg/kg/injection, schedule: Q01DX009 (ip), vehicle: saline, higher = longer survival): 101 % of control

O=C1C=CC(=O)O1 (tested in a mixture with another compound)
T/C (endpoint: median survival time, dose: 6.25 mg/kg/injection, schedule: Q01DX009 (ip), vehicle: other, higher = longer survival): 92 % of control
T/C (endpoint: median survival time, dose: 12.5 mg/kg/injection, schedule: Q01DX009 (ip), vehicle: other, higher = longer survival): 101 % of control
T/C (endpoint: median survival time, dose: 25.0 mg/kg/injection, schedule: Q01DX009 (ip), vehicle: other, higher = longer survival): 120 % of control

Nc1ccc(N(CCCl)CCN(CCCl)c2ccc(N)cc2)cc1
T/C (endpoint: median survival time, dose: 0.36 mg/kg/injection, schedule: Q01DX009 (ip), vehicle: saline, higher = longer survival): 124 % of control
T/C (endpoint: median survival time, dose: 0.75 mg/kg/injection, schedule: Q01DX009 (ip), vehicle: saline, higher = longer survival): 114 % of control
T/C (endpoint: median survival time, dose: 1.5 mg/kg/injection, schedule: Q01DX009 (ip), vehicle: saline, higher = longer survival): 103 % of control
T/C (endpoint: median survival time, dose: 3.0 mg/kg/injection, schedule: Q01DX009 (ip), vehicle: saline, higher = longer survival): 98 % of control

Nc1ncnc2c1ccn2C1OC(CO)C(O)C1O (centres undefined)
T/C (endpoint: median survival time, dose: 0.25 mg/kg/injection, schedule: Q01DX009 (ip), vehicle: saline, higher = longer survival): 111 % of control
T/C (endpoint: median survival time, dose: 0.5 mg/kg/injection, schedule: Q01DX009 (ip), vehicle: Klucel (hydroxypropylcellulose) (HPC), higher = longer survival): 106 % of control
T/C [1]: 106 % of control
T/C (endpoint: median survival time, dose: 1.0 mg/kg/injection, schedule: Q01DX009 (ip), vehicle: Klucel (hydroxypropylcellulose) (HPC), higher = longer survival): 110 % of control
T/C [2]: 99 % of control

Source: PubChem BioAssay AID194 (DTP/NCI, 2004)
